From patent publication US20250163016A1, “PYRIDINE DERIVATIVE, PREPARATION METHOD THEREFOR AND USE THEREOF” (CHENGDU EASTON BIOPHARMACEUTICALS CO., LTD., priority 2022, published 2025)

Experiments:
LSD1 = molecular target: T1, LSD1 (Homo sapiens, UniProt O60341); assay: LSD1 activity test (HTRF); type: biochemical; conditions: H3(1-21)K4 me1-biotin substrate, read-out: IC50, inhibitory activity on LSD1
T1 construct: purchased Active Motif 31432
Method: In this test, a homogeneous time resolved fluorescence (HTRF) technology was utilized, and the inhibitory activity of compounds on LSD1 was detected by adopting a two-step method. The first step was to incubate LSD1, compounds of different concentrations, and a biotin-labeled methylated polypeptide substrate (H3(1-21)K4 me1-biotin) at the room temperature for fixed time.
A corresponding solution with a 1000-fold final concentration was formed by dilution in a 384-well Source plate, and then Echo550 was used for transferring 10 nL to a 384-well reaction plate for being tested.
An inhibition percentage was calculated using a maximum value, a minimum value, and a signal value (maximum value: fluorescence intensity of 5 μL of 2× enzyme solution+5 μL of 2× substrate mixed solution+10 nL of 100% DMSO+10 μL of detection solution; minimum value: fluorescence intensity of 5 μL of 1× reaction solution+5 μL of 2× substrate mixed solution+10 nL of 100% DMSO+10 μL of detection solution; and signal value: fluorescence intensity of 5 μL of 2× enzyme solution+5 μL of 2× substrate mixed solution+10 nL of diluted compound to be tested+10 μL of detection solution), and a calculation formula was as follows: […]
Using a logarithm of the concentration as an X axis and the percentage inhibition rate as a Y axis, a dose-response curve was fitted using a formula log(inhibitor) vs. response-Variable slope (Four parameters) of analysis software Graphpad Prism 5 to obtain the IC50 value of each compound on the enzyme activity.

[1] = Pharmacokinetics of oral administration of mice under different solvent conditions; type: in vivo; conditions: male, Balb/c, mouse, plasma, 5 mg/kg, p.o. 5.0 mg/kg
Method: With Balb/c mice as tested animals, blood drug concentrations of the compounds of the present application in plasma at different moments after administration of the mice under different solvent conditions were determined using an LC-MS/MS method. Pharmacokinetic parameters of the compounds of the present application in the mice under the different solvent conditions were obtained, and pharmacokinetic characteristics of the compounds were studied.
• Balb/c mice, male, weight 18-22 g, 6 mice per group. The animals were fed in an animal house after being purchased, an adaptation period was at least 3 days, and they were used for tests after passing quarantine.
According to Table 8, each group of mice was given the corresponding tested drugs or positive drugs by gavage, before administration, and 15 min, 30 min, 1 h, 2 h, 4 h, 6 h, 8 h, 10 h and 24 h after administration, a fixed volume of blood was collected through eye sockets and placed in an EDTA-K2 anticoagulant tube, centrifuging was carried out at 8000 rpm for 1 min to separate plasma into a centrifuge tube, and the plasma was frozen in a −20° C. refrigerator.
The plasma at each time point stored at −20° C. was taken out, then acetonitrile was added, after whirling at 1500 revolutions for 2 min, centrifuging was carried out for 15 min (3500 r/min), and a fixed volume of solution supernatant was taken for LC-MS/MS analysis.
Non-compartment model fitting was carried out on pharmacokinetic behaviors of the tested compounds, and DAS3.31 software was adopted to calculate main pharmacokinetic parameters (T1/2, Tmax, Cmax, AUClast, etc.).

hERG ion channel = molecular target: T2, hERG ion channel (Homo sapiens, UniProt Q12809); assay: In-vitro hERG inhibitory activity (whole cell patch clamp, HEK293 cells); type: cell-based; conditions: HEK293 cells stably expressing hERG channels, read-out: IC50 on hERG current
T2 construct: expressed in transfected cells; host or cells: HEK293
Method: A whole cell sheet technology was used to detect the blocking effects of compounds on hERG channels on HEK293 cells stably expressing hERG channels, and a median inhibitory concentration IC50 of the compound was determined. As part of cardiac safety evaluation, its safety in-vitro screening for cardiac toxicity was preliminarily evaluated.
• HEK293 cells stably expressing hEGR ion channels
Electrodes were drawn using PC-10 (Narishige, Japan). The whole cell patch clamp was used for recording, and noise was filtered using one fifth of a sampling frequency. The cells were clamped at −80 mV, then depolarized to 40 mV using square waves lasting for 4 seconds, and then hyperpolarized to −40 mV using square waves lasting for 2 seconds to obtain an hERG tail current. This procedure was repeated every 20 seconds. The hERG tail current was a pure hERG current. A maximum current triggered by the second square wave was detected, after the maximum current was stable, the compounds were tested through perfusion, and after reaction was stable, a blocking intensity was calculated.

[2] = solvent 0.5% sodium methylcellulose aqueous solution
[3] = solvent 5% DMSO + 10% Solutol + 85% Saline

T2 sequence (Q12809 whole entry): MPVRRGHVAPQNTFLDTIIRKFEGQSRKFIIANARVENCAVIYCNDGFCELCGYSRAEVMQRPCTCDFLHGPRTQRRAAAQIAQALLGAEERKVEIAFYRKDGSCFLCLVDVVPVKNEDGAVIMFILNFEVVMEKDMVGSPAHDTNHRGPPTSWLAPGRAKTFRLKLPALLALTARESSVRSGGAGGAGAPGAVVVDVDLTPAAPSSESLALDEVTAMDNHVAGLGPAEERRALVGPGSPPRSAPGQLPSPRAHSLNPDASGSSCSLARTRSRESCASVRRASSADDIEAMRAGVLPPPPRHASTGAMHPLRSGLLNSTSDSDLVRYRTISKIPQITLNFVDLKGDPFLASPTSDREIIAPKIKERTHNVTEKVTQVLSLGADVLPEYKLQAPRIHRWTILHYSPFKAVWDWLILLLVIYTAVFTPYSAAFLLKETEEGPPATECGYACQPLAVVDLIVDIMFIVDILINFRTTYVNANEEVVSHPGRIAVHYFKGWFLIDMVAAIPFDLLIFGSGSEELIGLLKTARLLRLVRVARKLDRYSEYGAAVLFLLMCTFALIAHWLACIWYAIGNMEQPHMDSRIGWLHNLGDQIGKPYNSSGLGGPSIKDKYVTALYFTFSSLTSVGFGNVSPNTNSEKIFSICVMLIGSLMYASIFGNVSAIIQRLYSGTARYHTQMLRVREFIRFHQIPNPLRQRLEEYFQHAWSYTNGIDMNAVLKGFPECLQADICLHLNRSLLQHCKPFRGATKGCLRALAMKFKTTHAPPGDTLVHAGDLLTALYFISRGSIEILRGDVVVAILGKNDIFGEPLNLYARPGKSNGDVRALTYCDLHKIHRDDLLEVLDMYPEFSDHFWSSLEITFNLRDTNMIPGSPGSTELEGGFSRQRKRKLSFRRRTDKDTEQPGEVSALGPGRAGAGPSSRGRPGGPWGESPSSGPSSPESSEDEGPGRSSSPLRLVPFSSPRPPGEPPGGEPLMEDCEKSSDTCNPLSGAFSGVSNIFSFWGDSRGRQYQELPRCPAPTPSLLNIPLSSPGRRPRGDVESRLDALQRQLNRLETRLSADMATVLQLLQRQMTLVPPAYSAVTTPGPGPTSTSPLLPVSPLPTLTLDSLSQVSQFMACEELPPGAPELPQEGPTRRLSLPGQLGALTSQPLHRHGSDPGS

With `CC(C)(O)Cn1ncc2cc(-c3c(C#N)cc(N4CCC(N)CC4)nc3-c3ccc(C#N)c(F)c3)c(F)cc21` [Compound 16, 6-(4-aminopiperid-1-yl)-2-(4-cyano-3-fluorophenyl)-3-(6-fluoro-1-(2-hydroxyl-2-methylpropyl)-1H-indazol-5-yl)isonicotinonitrile] the IC50 (LSD1) was 0.23 nM, the AUC(0-t) [1, 2] was 3220 ± 1510 ng·h/mL and the Cmax [1, 2] was 895 ± 499 ng/mL. It also gave a Tmax [1, 2] of 3.33 ± 1.15 h, a half-life [1, 2] of 3.99 ± 0.59 h and an AUC(0-t) [1, 3] of 2420 ± 123 ng·h/mL. It also gave a Cmax [1, 3] of 612 ± 111 ng/mL, a Tmax [1, 3] of 2.67 ± 1.15 h and a half-life [1, 3] of 5.52 ± 0.67 h. It also gave an IC50 (hERG ion channel) of over 10000 nM.
`COc1ccc(-c2c(-c3ccc(C#N)c(F)c3)nc(N3CCC(N)CC3)n(C)c2=O)cc1F` [CC-90011, reference compound] showed an AUC(0-t) [1, 2] of 965 ± 120 ng·h/mL, a Tmax [1, 2] of 3.33 ± 1.15 h and a half-life [1, 2] of 5.01 ± 0.04 h. It also gave an AUC(0-t) [1, 3] of 871 ± 270 ng·h/mL, a Cmax [1, 3] of 173 ± 50.9 ng/mL and a Tmax [1, 3] of 1 h. The half-life [1, 3] was 2.44 ± 0.34 h.
Molecule `CC(C)(O)Cn1nc(F)c2cc(-c3c(C#N)cc(N4CCC(N)CC4)nc3-c3ccc(C#N)c(F)c3)c(F)cc21` [Compound 36, 6-(4-aminopiperid-1-yl)-2-(4-cyano-3-fluorophenyl)-3-(3,6-difluoro-1-(2-hydroxyl-2-methylpropyl)-1H-indazol-5-yl)isonicotinonitrile] has an IC50 (LSD1) of 0.45 nM.
